{
  "source": "paper PMC7767506",
  "about": "“Synthesis and Characterization of Store-Operated Calcium Entry Inhibitors Active in the Submicromolar Range” (International Journal of Molecular Sciences, 2020)",
  "key": {"IP3R1": {"target": "T1, IP3R1 (Mus musculus, UniProt P11881)", "T1 construct": "expressed in transfected cells; host or cells: L15 fibroblast cell line (gift of Katsuhiko Mikoshiba), saponin-permeabilized", "T1 sequence (P11881 whole entry)": "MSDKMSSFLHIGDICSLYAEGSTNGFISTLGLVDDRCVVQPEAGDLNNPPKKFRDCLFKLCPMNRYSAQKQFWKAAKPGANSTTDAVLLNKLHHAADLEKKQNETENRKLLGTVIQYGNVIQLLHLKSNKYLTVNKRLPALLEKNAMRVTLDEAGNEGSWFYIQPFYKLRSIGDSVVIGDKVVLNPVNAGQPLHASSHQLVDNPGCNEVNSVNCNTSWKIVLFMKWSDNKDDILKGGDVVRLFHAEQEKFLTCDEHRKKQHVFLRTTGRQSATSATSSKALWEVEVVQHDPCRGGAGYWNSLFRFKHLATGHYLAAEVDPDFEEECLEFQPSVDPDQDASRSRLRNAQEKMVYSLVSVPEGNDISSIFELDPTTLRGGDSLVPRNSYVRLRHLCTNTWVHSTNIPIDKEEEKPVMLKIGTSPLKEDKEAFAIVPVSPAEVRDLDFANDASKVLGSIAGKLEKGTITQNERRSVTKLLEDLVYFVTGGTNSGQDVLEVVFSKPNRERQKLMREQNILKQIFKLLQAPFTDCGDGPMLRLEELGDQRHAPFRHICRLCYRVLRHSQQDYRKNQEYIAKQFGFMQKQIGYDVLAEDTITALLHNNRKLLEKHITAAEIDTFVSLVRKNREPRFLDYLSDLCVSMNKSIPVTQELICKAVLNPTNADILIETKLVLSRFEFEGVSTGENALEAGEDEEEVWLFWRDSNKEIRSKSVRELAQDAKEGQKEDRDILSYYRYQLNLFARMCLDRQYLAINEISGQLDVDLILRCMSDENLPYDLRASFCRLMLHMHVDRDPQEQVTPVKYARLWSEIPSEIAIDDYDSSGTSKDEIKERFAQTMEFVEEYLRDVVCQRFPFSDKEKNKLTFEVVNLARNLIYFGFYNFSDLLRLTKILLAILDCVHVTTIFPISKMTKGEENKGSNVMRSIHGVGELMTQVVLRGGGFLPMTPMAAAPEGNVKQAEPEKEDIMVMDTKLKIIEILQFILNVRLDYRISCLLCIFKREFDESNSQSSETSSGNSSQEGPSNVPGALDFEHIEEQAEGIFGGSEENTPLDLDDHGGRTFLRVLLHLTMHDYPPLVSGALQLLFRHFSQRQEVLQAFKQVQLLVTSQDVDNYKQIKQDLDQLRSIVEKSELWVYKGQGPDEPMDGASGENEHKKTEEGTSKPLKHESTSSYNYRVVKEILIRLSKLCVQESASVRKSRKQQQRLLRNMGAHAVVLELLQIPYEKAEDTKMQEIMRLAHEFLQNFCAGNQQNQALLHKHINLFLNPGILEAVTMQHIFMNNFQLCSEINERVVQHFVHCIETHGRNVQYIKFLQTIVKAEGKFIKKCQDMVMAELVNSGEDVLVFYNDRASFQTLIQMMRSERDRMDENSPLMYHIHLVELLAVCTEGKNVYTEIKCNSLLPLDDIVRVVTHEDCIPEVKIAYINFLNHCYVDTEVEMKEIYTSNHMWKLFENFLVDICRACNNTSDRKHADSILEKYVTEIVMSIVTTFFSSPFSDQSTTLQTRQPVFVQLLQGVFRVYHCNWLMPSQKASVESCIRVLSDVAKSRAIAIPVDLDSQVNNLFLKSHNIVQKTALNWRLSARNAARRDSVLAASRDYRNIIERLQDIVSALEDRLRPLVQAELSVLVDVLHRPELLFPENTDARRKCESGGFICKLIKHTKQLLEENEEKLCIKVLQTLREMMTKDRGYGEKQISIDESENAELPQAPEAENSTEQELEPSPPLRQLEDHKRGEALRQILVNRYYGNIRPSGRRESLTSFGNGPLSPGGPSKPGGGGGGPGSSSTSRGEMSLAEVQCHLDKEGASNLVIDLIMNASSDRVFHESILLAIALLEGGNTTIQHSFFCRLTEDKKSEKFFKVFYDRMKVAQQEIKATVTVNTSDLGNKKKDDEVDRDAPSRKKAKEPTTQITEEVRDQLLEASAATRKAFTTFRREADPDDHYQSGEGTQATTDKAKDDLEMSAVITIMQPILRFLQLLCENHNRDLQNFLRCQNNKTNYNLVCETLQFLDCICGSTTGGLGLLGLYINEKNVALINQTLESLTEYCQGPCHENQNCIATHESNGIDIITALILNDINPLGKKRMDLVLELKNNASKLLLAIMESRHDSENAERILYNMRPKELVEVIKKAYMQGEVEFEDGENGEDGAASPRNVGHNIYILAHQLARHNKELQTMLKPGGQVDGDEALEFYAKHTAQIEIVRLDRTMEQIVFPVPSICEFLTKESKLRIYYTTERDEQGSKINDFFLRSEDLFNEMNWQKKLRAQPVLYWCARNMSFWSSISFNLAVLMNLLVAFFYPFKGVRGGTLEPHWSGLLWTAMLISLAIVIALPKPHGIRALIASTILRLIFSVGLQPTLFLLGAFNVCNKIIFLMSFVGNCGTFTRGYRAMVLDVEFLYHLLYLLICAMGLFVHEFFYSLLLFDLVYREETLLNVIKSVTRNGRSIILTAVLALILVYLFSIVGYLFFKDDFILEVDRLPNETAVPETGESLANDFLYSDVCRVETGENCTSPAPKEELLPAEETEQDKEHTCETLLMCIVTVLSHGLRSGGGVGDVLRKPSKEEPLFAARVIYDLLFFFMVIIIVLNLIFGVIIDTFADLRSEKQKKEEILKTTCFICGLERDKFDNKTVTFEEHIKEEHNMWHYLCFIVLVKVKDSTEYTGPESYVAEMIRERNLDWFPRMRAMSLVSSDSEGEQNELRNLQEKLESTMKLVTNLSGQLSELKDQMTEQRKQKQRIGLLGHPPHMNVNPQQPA", "assay": "IP3-induced Ca2+ release (IICR) in permeabilized L15 fibroblasts overexpressing IP3R1", "type": "cell-based", "description": "Measurements of SERCA-mediated ^45Ca^2+ store loading and IP3-dependent release from the ER Ca^2+ store were performed on permeabilized cells in unidirectional conditions. As this approach required the use of cells forming strongly adherent monolayers, we used L15 fibroblasts stably overexpressing IP3R1, similarly to our previous work.\nThe L15 fibroblasts stably overexpressing IP3R1 were seeded in gelatin-coated 12-well plates (Greiner, Frickenhausen, Germany) at a density of 60,000 cells per well. Unidirectional ^45Ca^2+ flux experiments on confluent cell monolayers were performed at 30 °C after membrane permeabilization with saponin (40 µg/mL), exactly as previously described. After permeabilization, the non-mitochondrial Ca^2+ stores were loaded for 45 min in 120 mM KCl, 30 mM imidazole–HCl (pH 6.8), 5 mM MgCl2, 5 mM ATP, 0.44 mM EGTA, 10 mM NaN3, and 150 nM free ^45Ca^2+ (28 µCi mL^−1). Subsequently, efflux was initiated by incubation in efflux medium (120 mM KCl, 1 mM EGTA, 10 µM TG and 30 mM imidazole–HCl pH 6.8). The latter medium was replaced every two minutes for 18 minutes. The exact amount of Ca^2+ at each time point is calculated by summing in retrograde order the amount of radioactivity remaining in the cells at the end of the efflux and the radioactivity collected during the successive time intervals. This allows to calculate the steady-state content of the ER Ca^2+ stores (indicative for the SERCA activity, after subtraction of the loading achieved in the presence of 2 µM TG) the basal leak rate of Ca^2+ out of the stores and the IP3-induced Ca^2+ release after addition of IP3 (0.7 µM). These various parameters were measured both in control conditions or in the presence of various 2-APB analogs as indicated. To assess the effect of the 2-APB analogs on the SERCA-mediated loading of the ER Ca^2+ stores, the analogs were added during the ^45Ca^2+-loading phase as described previously. […]"}, "Jurkat cells": {"tested_on": "Jurkat cells", "assay": "TUNEL apoptosis assay in Jurkat cells", "type": "cell-based, human", "description": "To verify the mechanism of cell death induced by compound P11, we next performed caspase-3 activity assays using the fluorogenic Ac-DEVD-AFC substrate as well as a TUNEL assay.\nWe measured the apoptosis levels in Jurkat cells by the “in situ cell death detection” kit (Roche Applied Science, Meylan, France). Briefly, 50,000 cells/well were seeded in a 96-well plate and treated with or without 10 µg/mL PHA and 0 to 1 µM P11 for 6, 12, or 24 h. Cells were spun, fixed, and permeabilized according to the manufacturer’s instructions and the terminal transferase dUTP Nick end labelling reaction was performed in the dark during 60 min at 37 °C. For visualization of the results, an epifluorescence microscope (Axioskop, Karl Zeiss, Le Pecq, France) was used at an excitation wavelength of 488 nm, and an emission wavelength of 545 nm. Cells were also loaded with 4’,6’ –diamidino-2-phenylindole (DAPI) to visualize the nuclei. Total cell number (>200) and TUNEL-positive cells were counted in several fields (>5) and the ratio of apoptotic cells was calculated. This experiment was repeated three times."}, "[1]": {"tested_on": "Orai1-deficient lymphoblastoid cell line", "assay": "SOCE in Orai1-deficient lymphoblastoid cell line (LCL Orai1-)", "type": "cell-based, human", "settings": "1 µM", "description": "We next tested P11 efficacy on two lymphoblastoid cell lines (“LCL”) established from an Orai1-deficient with a severe combined immunodeficiency (“LCL Orai1−”) and a healthy (“LCL Orai1+”) patients (Figure 3C [19]). […] However, CaCl2 addition after 10 min of TG treatment was only able to induce a massive [Ca^2+]cyt rise in LCL expressing Orai1 proteins, confirming the SOCE default of the SCID patient.\n[Ca^2+]cyt was recorded by a fluorimetric ratio technique as previously described. Leukocytes were spun and resuspended at a density of 10^6 cells/mL in Hepes buffered saline (HBS; 135 mM NaCl, 5.9 mM KCl, 1.2 mM MgCl2, 11.6 mM Hepes, 11.5 mM glucose adjusted to pH 7.3 with NaOH). Due to the presence of 0.002% Ca^2+ in the NaCl, this HBS medium contained 0.1 mM of Ca^2+. […] Ultraviolet light of 360 nm was used for excitation of Indo-1, and emissions at 405 and 480 nm were recorded. […] The maximum Indo-1 fluorescence (Rmax) was obtained by adding 1 µM ionomycin to the cell suspension in the presence of 10 mM extracellular CaCl2. Minimum fluorescence was determined following the depletion of external Ca^2+ with 5 mM EGTA.\nTo visualize the SOCE, cells were placed into the quartz cuvette and 0.5 EGTA was added just before the beginning of the recordings. […] In the dose-response experiments, different concentrations of 2-APB and its analogs were added 30 s prior to Ca^2+ readdition."}, "Jurkat cell SOCE": {"tested_on": "Jurkat cell SOCE", "assay": "Thapsigargin-induced SOCE in Jurkat cells, Indo-1 [Ca2+]cyt measurement", "type": "cell-based, human", "settings": "Jurkat cells; for Ki: 1 µM thapsigargin 10 min, compound added 30 s prior to 1 mM CaCl2", "description": "To visualize SOCE, we performed a classical protocol: Jurkat cells in Ca^2+-free HBS medium are stimulated by 1 µM thapsigargin (TG, black arrow, Figure 2A) during 600 s to allow the release of Ca^2+ ions by the ER, and the subsequent opening of the store-operated Ca^2+ channels (SOCC). Addition of 1 mM CaCl2 allowed for a massive entry of Ca^2+ ions through SOCC leading thus to an increase of the cytosolic calcium concentration ([Ca^2+]cyt). To test 2-APB and its analogues, different concentrations of compounds were added 30 s prior to Ca^2+ addition.\n[Ca^2+]cyt was recorded by a fluorimetric ratio technique as previously described. Leukocytes were spun and resuspended at a density of 10^6 cells/mL in Hepes buffered saline (HBS; 135 mM NaCl, 5.9 mM KCl, 1.2 mM MgCl2, 11.6 mM Hepes, 11.5 mM glucose adjusted to pH 7.3 with NaOH). Due to the presence of 0.002% Ca^2+ in the NaCl, this HBS medium contained 0.1 mM of Ca^2+. Then, cells were incubated in the dark with 4 μM Indo-1-AM for one hour at room temperature under slow agitation. Cells were then centrifuged and resuspended in HBS medium before measurement. To perform the experiments, 0.5 to 1 × 10^6 cells were suspended in 2 mL HBS in a quartz cuvette and inserted into a spectrofluorophotometer (RF-1501 Shimadzu Corporation, Kyoto, Japan) connected to a PC computer (Dell Computer Corp., Montpellier, France). A temperature of 37°C was maintained by circulating water from a bath. Ultraviolet light of 360 nm was used for excitation of Indo-1, and emissions at 405 and 480 nm were recorded. Background and autofluorescence of the cell suspension were subtracted from the recordings. The maximum Indo-1 fluorescence (Rmax) was obtained by adding 1 µM ionomycin to the cell suspension in the presence of 10 mM extracellular CaCl2. Minimum fluorescence was determined following the depletion of external Ca^2+ with 5 mM EGTA.\nTo visualize the SOCE, cells were placed into the quartz cuvette and 0.5 EGTA was added just before the beginning of the recordings. To induce the SOCE, the cells were treated with 1 μM thapsigargin (TG) during 10 min in Ca^2+-free HBS to induce Ca^2+ release from the ER and the opening of SOCE channels. Then, 1 mM CaCl2 was added to measure the change in [Ca^2+]cyt subsequently to Ca^2+ influx. In the dose-response experiments, different concentrations of 2-APB and its analogs were added 30 s prior to Ca^2+ readdition."}},
  "note": "Values joined by “and” are separate entries in the source; they are usually repeats but may differ in a detail not shown here. Identical values can stand only once. “Also recorded” adds a separate entry of the source. Like-named read-outs stand apart in the source and are kept apart here.",
  "data": [
    {"substance": "2-(dibiphenyl-4-ylboryloxy)ethanamine [P11]", "values": [
      {"measurement": "change of IP3R activity", "setting": "IP3R1; 100 µM", "result": "−29 ± 9", "unit": "%"},
      {"measurement": "effect on IP3R", "setting": "IP3R1; concentrations < 1 µM", "result": "devoid of any inhibitory activity; also recorded: without any effect"},
      {"measurement": "apoptotic cells (TUNEL)", "setting": "Jurkat cells; 1 µM P11 alone, 24 h", "result": "~ 5%"},
      {"measurement": "cells with fragmented DNA (TUNEL)", "setting": "Jurkat cells; 10 µg/mL PHA + 1 µM P11, 24 h", "result": "17.9 ± 1.2", "unit": "%"},
      {"measurement": "fold increase of cells with fragmented DNA", "setting": "Jurkat cells; PHA + P11 at concentrations > 10 nM, vs resting conditions", "result": "≈ 4.5 fold"},
      {"measurement": "fold increase of apoptotic cells", "setting": "Jurkat cells; costimulation PHA + P11 > 10 nM, vs PHA alone (Figure 7 legend)", "result": "≈ 1.5 fold"},
      {"measurement": "effect on [Ca2+]cyt after SOCE activation", "setting": "[1]", "result": "inefficient"},
      {"measurement": "concentration of complete/full SOCE inhibition", "setting": "Jurkat cell SOCE", "result": "below 1 µM"},
      {"measurement": "Ki", "setting": "Jurkat cell SOCE; read-out: Ki (nM), inhibition constant on SOCE", "result": "~75 nM and 75 nM"},
      {"measurement": "Ki", "setting": "Jurkat cell SOCE; read-out: Ki (µM), inhibition constant on SOCE", "result": "< 1000", "unit": "nM"},
      {"measurement": "concentration at which SOCE is totally blocked", "setting": "Jurkat cell SOCE; Figure 2B", "result": "> 100", "unit": "nM"}
    ]}
  ]
}
